The text below walks through data of PubChem BioAssay AID1996.

Converted amounts (≈) assume the structure as drawn.

As a reminder, the kinetic solubility is the concentration staying in solution when a stock, usually in DMSO, is diluted into the medium.

The conditions of this data set: buffer; pH 7.4; 200.0 µM.
`COC1C(C)=C(C)C(=O)N1Cc1ccc(F)cc1` (centres undefined) came in with a kinetic solubility of 31.9 µg/mL (≈ 128 µM).
`CC(=O)Nc1ccc(S(=O)(=O)N[C@@H](C)C(=O)OCC(=O)c2ccc[nH]2)cc1` came in with a solubility (kinetic) of 42.2 µg/mL (≈ 107 µM).
As for `c1ccc(CN2CCN(c3ncccn3)CC2)cc1`, the figure is 24.5 µg/mL (≈ 96.3 µM).
Molecule `CCOC(=O)N1CCN(CCC(=O)Nc2ccccc2)CC1` yielded a kinetic solubility of 32.2 µg/mL (≈ 105 µM).
As for `C=CCNc1nc(NCc2ccccc2)nc(OCC)n1`, the figure is 36.6 µg/mL (≈ 128 µM).
As for `COc1ccc(NC(=O)Cc2ccc(C)c(C)c2)cc1S(=O)(=O)N1CCCCC1`, the figure is 12.8 µg/mL (≈ 30.7 µM); as for `CCOc1ccc(/C=C2\SC(=S)N(C)C2=O)cc1OC`, < 0.7 µg/mL; as for `CCCCNC(=O)/C(=C/c1ccco1)NC(=O)c1ccco1`, 37.7 µg/mL (≈ 125 µM).
In the case of `CCCC(=O)Nc1ccc(C=C(C(C)=O)C(C)=O)cc1`, the solubility (kinetic) was > 41 µg/mL.
Turning to `CN(C(=O)CSc1ncnc2sc3c(c12)CCCC3)C1CCS(=O)(=O)C1` (centres undefined), the kinetic solubility is > 61.7 µg/mL.
Consider `Cc1ccc2cccc(N)c2n1`, for which the kinetic solubility came out at 19 µg/mL (≈ 120 µM).
`O=C1C=C(NCc2ccccc2)c2ccccc2C1=O` displayed a kinetic solubility of 4.6 µg/mL (≈ 17.5 µM). Against the preceding molecule, the solubility kinetic is about 4.1-fold lower.
As for `CNn1cnc2ccsc2c1=O`, the kinetic solubility was > 27.2 µg/mL.
In the case of `CCOC(=O)C1CCCN1C(=O)c1ccc(OC)c(Br)c1` (centres undefined), the solubility (kinetic) was > 53.4 µg/mL.
Under `CC(C)CN1CCN(Cc2cccc3cccnc23)CC1CCO` (centres undefined) stands 37.1 µg/mL (≈ 113 µM).
Molecule `CCCc1cc(C(=O)Nc2cc(OC)ccc2OC)cs1` showed a kinetic solubility of 8.6 µg/mL (≈ 28.2 µM).
As for `Cc1ncc([N+](=O)[O-])n1CC(=O)Nc1cccc(C(F)(F)F)c1`, the figure is 6 µg/mL (≈ 18.3 µM); as for `CCN(CC)c1nc2c(c(=O)[nH]c(=O)n2C)n1Cc1ccccc1`, 30.5 µg/mL (≈ 93.2 µM).
Under `O=C(NCc1ccc2c(c1)OCO2)Nc1ccc2ccccc2c1` stands 1.3 µg/mL (≈ 4.06 µM).
Under `CCn1ccnc1C(O)c1cccc2ccccc12` (centres undefined) stands > 37.8 µg/mL.
As to `O=C(c1ccoc1)N1CCC(CO)(CCc2ccccc2)CC1`, the solubility (kinetic) was 46 µg/mL (≈ 147 µM).
As for `COc1ccccc1NC(=O)COC(=O)C1C2CC3OC(=O)C1C3C2` (centres undefined), the figure is > 51.8 µg/mL; as for `CN(C)C(=O)CN1c2cccc3cccc(c23)S1(=O)=O`, > 43.6 µg/mL; as for `O=c1[nH]c(=S)[nH]c2nc(-c3cccs3)cc(C(F)(F)F)c12`, 4.8 µg/mL (≈ 14.6 µM).
Under `CC(C)Cc1ccc(C(C)C(=O)Nc2ccccc2O)cc1` (centres undefined) stands 1.9 µg/mL (≈ 6.39 µM); under `Cc1ccc(C(=O)NCC(=O)N(C)Cc2cccc(F)c2)s1`, > 48.1 µg/mL; under `O=C1CSC(=Nc2cccc([N+](=O)[O-])c2)N1`, > 35.6 µg/mL.
As for `O=C(CSc1ncc(-c2ccccc2)[nH]1)Nc1ccccc1F`, the figure is > 49.1 µg/mL.
As for `CNC(=O)Oc1ccc2c(c1)[C@]1(C)CCN(C)C1N2C.O=C(O)c1ccccc1O` (some centres undefined), the solubility (kinetic) is > 62 µg/mL.
As for `O=C(Nc1cccc(F)c1)c1ccc(Cn2cc([N+](=O)[O-])cn2)o1`, the kinetic solubility was > 49.5 µg/mL.
For `Cn1cnc([N+](=O)[O-])c1Sc1ncnc2nc[nH]c12`, the kinetic solubility was > 41.6 µg/mL.
In turn, `CC(C)(C)c1ccc(C(=O)N2CCN(Cc3ccccc3)CC2)cc1` had a solubility (kinetic) of 28.5 µg/mL (≈ 84.7 µM).
`Cc1ccc(C(=O)Nc2ccccc2C(=O)NCC2CCCO2)cc1` (centres undefined): the solubility (kinetic) is > 50.8 µg/mL.
Consider `CCc1nc2ccccc2c(C(=O)Nc2ccc(F)cc2)c1C`, for which the solubility (kinetic) was < 0.3 µg/mL.
The molecule `CN(C)S(=O)(=O)c1ccc(C(=O)/C=C/c2cccnc2)cc1` yielded a solubility (kinetic) of 3.3 µg/mL (≈ 10.4 µM).
Under `O=c1[nH]cccc1-c1nc2ccccc2n1Cc1ccccc1F` stands 3.9 µg/mL (≈ 12.2 µM); under `CCC(=O)c1ccc(OCC(=O)Nc2ccc(S(=O)(=O)Nc3cc(C)nc(C)n3)cc2)cc1`, > 70.3 µg/mL; under `CCN1CSC(=S)N(Cc2ccc(OC)cc2)C1`, 38.6 µg/mL (≈ 137 µM).
Under `CC1CN(C(=O)c2cc3cc(F)ccc3[nH]2)CC(C)O1` (centres undefined) stands 32.2 µg/mL (≈ 117 µM); under `COc1ccc(CCNC(=O)COC(=O)/C=C/c2ccc3c(c2)OCO3)cc1`, 2.2 µg/mL (≈ 5.74 µM).
Regarding `CCCCc1ccc(NC2=NCCCS2)cc1`, the kinetic solubility is 26.4 µg/mL (≈ 106 µM). Against the preceding molecule, the solubility kinetic is about 12-fold higher.
As for `Br.N#Cc1ccc(CSC2=NCCN2)cc1`, the kinetic solubility is > 44.7 µg/mL.
In the case of `Cc1nc(N)sc1-c1csc(Nc2cccc(O)c2)n1`, the kinetic solubility was 34.1 µg/mL (≈ 112 µM).
In turn, `CCCCc1nc(NCCO)c(C#N)c2c1CCCC2` registered a solubility (kinetic) of 3.6 µg/mL (≈ 13.2 µM).
Under `CC(C)c1ccccc1NC(=O)C1CC(=O)N(C2CCCC2)C1` (centres undefined) stands > 47.2 µg/mL.
For the molecule `COc1ccccc1C(C#N)c1cccc(Cl)n1` (centres undefined), the solubility (kinetic) is 38 µg/mL (≈ 147 µM).
For `CCC(C)[C@H](NC(=O)N1CCCCCC1)C(=O)O` (some centres undefined), the kinetic solubility was > 38.5 µg/mL.
`CC(=O)Oc1ccc(-c2nc3c(C)cccc3c(=O)o2)cc1` came in with a kinetic solubility of 2.9 µg/mL (≈ 9.82 µM).
Consider `COCCSc1ccccc1C(=O)Nc1ccccc1C#N`, for which the kinetic solubility is > 46.9 µg/mL.
Take `O=C(Oc1c(-c2ccccc2)c(=O)n2c3c(cccc13)CC2)c1ccc(F)cc1`: the solubility (kinetic) was < 0.8 µg/mL.
For the molecule `C=CCNS(=O)(=O)c1cc2c3c(c1)CCN3C(=O)CC2`, the kinetic solubility was > 43.9 µg/mL.
With `Nc1ncnc2c1ncn2[C@@H]1O[C@H](CO)[C@@H](O)[C@@H]1O`, the kinetic solubility was > 40.1 µg/mL.
With `COc1ccc(CCNC(=O)COC(=O)C2CC2)cc1`, the kinetic solubility is 25.4 µg/mL (≈ 91.6 µM).
Under `CCOC(=O)C1CCCN(C(=O)CSc2nc(C)cc(C)n2)C1` (centres undefined) stands 41.5 µg/mL (≈ 123 µM); under `Clc1ccccc1N1CCN(Cc2ccco2)CC1`, 30.3 µg/mL (≈ 109 µM).
As for `CCOC(=O)C1CCN(C(=O)c2[nH]c3ccc(OC)cc3c2C)CC1`, the solubility (kinetic) is 48.3 µg/mL (≈ 140 µM).
Under `COc1ccccc1NC(=O)c1cc2c(cc1Cl)N1CCCCCC1=NS2(=O)=O` stands 2.1 µg/mL (≈ 4.84 µM); under `N#CCCN(CCC#N)C(=S)NC1CC2C=CC1C2` (centres undefined), > 41.2 µg/mL.
As to `O=C(CSc1ncccn1)NC(=O)Cc1ccccc1`, the solubility (kinetic) is > 43.1 µg/mL.
In turn, `O=C(NCc1csc(-c2ccccc2)n1)c1cc(F)cc2c1OCOC2` gave a kinetic solubility of 5.7 µg/mL (≈ 15.4 µM).
Under `Cc1ccccc1Sc1ncccc1[N+](=O)[O-]` stands 5.1 µg/mL (≈ 20.7 µM); under `O=C(CN1CCN(c2ccccn2)CC1)Nc1cccc(F)c1`, 19.9 µg/mL (≈ 63.3 µM).
Under `COc1ccc(NC(=O)Nc2cccc(Cl)c2Cl)c(OC)n1` stands < 0.2 µg/mL; under `O=C(COC(=O)c1cc(=O)c2ccccc2o1)NCC1CCCCC1`, 33 µg/mL (≈ 96.1 µM).
Take `CSc1c(CN2CCN(C)CC2)c2ccccc2n1C.Cl`: the kinetic solubility was found to be 52.9 µg/mL.
Consider `Cc1ccccc1NC(=O)c1cccc(NC(=O)c2ccco2)c1`, for which the kinetic solubility is > 48.1 µg/mL.
As for `CCn1cc(S(=O)(=O)Nc2ccc(C)c(Cl)c2)cn1`, the figure is > 45 µg/mL.
In turn, `COc1ccc(N2CCN(CC(=O)Nc3ccc(C)cc3)CC2)cc1` came in with a kinetic solubility of 46.8 µg/mL (≈ 138 µM).
Under `O=C(Nc1nnc(CCN2CCCCC2)s1)c1ccccc1Cl` stands > 52.6 µg/mL; under `CC(=O)Nc1nc(C)c(Oc2ccc(C)cc2)c(=O)[nH]1`, 39.6 µg/mL (≈ 145 µM); under `CCOC(=O)N1CCN(C(=O)c2ccccc2NC(C)=O)CC1`, > 47.9 µg/mL.
As for `CC(C)N1CCN(C2CSCCSC2)CC1CCO` (centres undefined), the figure is 42.7 µg/mL (≈ 140 µM).
As for `O=C1CCC(=O)N1OCCOc1ccc(Cl)c2ccccc12`, the figure is 5.3 µg/mL (≈ 16.6 µM).
Regarding `COc1nc(C)cc(C)c1S(=O)(=O)c1ccccc1`, the kinetic solubility stood at 41.3 µg/mL (≈ 149 µM).
`CCCCN1C(=O)c2ccc(C(=O)NCc3ccco3)cc2C1=O` returned a kinetic solubility of 17.9 µg/mL (≈ 54.8 µM).
Under `CSc1nccc(NC(=O)c2cccc(Br)c2)n1` stands 2.5 µg/mL (≈ 7.71 µM).
As for `O=C(O)C1CCC(CNCc2ccncc2)CC1` (centres undefined), the figure is 36.7 µg/mL (≈ 148 µM).
Under `Cc1cc2c(cc1S(=O)(=O)N1CCOCC1)NC(=O)CO2` stands > 46.9 µg/mL.
As to `CN1CCN(C(=O)OC2c3nccnc3C(=O)N2c2ccc(Cl)cn2)CC1` (centres undefined), the solubility (kinetic) was > 58.3 µg/mL.
As to `CCN(CC(=O)NCc1ccccn1)S(=O)(=O)c1ccc(OC)cc1`, the kinetic solubility was > 54.5 µg/mL.
As for `CCCN(C(=O)CCl)C1=CCCCC1`, the solubility (kinetic) was 31 µg/mL (≈ 144 µM).
Under `O=C1SC(Cc2ccccc2)C(=O)N1c1ccccc1` (centres undefined) stands 6.1 µg/mL (≈ 21.5 µM); under `O=C(c1cccc(F)c1F)N1CCCc2ccccc21`, 31.1 µg/mL (≈ 114 µM); under `Cc1cc(Nc2ccccc2)cc(=O)n1C`, 30.9 µg/mL (≈ 144 µM).
As for `O=C(CC1SC(=Nc2ccc(O)cc2)NC1=O)Nc1ccccc1` (centres undefined), the figure is 3.9 µg/mL (≈ 11.4 µM); as for `O=C(NCCc1ccccn1)c1cc2ccccc2o1`, 37.7 µg/mL (≈ 142 µM).
As for `O=C(Cc1ccccc1)NCc1cccnc1`, the figure is 33.8 µg/mL (≈ 149 µM); as for `CC1CCc2c(C(=O)NCc3ccco3)csc2C1` (centres undefined), 34.9 µg/mL (≈ 127 µM).
For `CC(C)C1Cc2[nH]c(=O)c(C#N)cc2CO1` (centres undefined), the solubility (kinetic) was > 32.7 µg/mL.
Under `Cn1c(=S)[nH]c2scc(-c3cccs3)c2c1=O` stands > 42.1 µg/mL; under `OCc1ccc(OCCCOc2cccc3cccnc23)cc1`, 30.5 µg/mL (≈ 98.6 µM); under `O=c1cc(OCc2ccccc2)cc[nH]1`, > 30.2 µg/mL.
As for `COc1ccc(NS(=O)(=O)c2cc(NC(=O)c3ccc(Cl)cc3)ccc2N2CCOCC2)cc1`, the figure is 1.5 µg/mL (≈ 2.99 µM); as for `COc1ccc(Nc2nc(N)c([N+](=O)[O-])c(NCc3ccccc3)n2)cc1`, < 0.1 µg/mL; as for `CSc1ncc(C(=O)Nc2ccc(C)cc2C)c(C)n1`, 12.1 µg/mL (≈ 42.1 µM).
Under `COc1ccc(C(=O)Nc2cc(C)nn2-c2ccc(C)cc2)cc1` stands > 48.2 µg/mL.
For `CC(C)Oc1ccc(C(CC(=O)N2CCOCC2)C(C)C)cc1` (centres undefined), the solubility (kinetic) was > 47.9 µg/mL.
On to `O=C(NCc1cccnc1)C1CC(c2ccccc2Cl)=NO1` (centres undefined), for which the kinetic solubility was > 47.4 µg/mL.
Under `CCOC(=O)c1cccc(C(=O)Nc2nc3ccc(OC)cc3s2)n1` stands < 0.3 µg/mL.
Under `Clc1cc2nc(-c3cccnc3Cl)[nH]c2cc1Cl` stands 0.8 µg/mL (≈ 2.68 µM).
Under `Cc1cc(C)c(C#N)c(N2CCN(c3ccc(F)cc3)CC2)n1` stands < 0.2 µg/mL; under `N#Cc1c(-c2ccc([N+](=O)[O-])cc2)nc2n(c1=O)CCS2`, 14.7 µg/mL (≈ 49 µM); under `O=C(NC1=NCCS1)c1cccc(Br)c1`, 11.3 µg/mL (≈ 39.6 µM).
Turning to `CC12CC3(C)CC(C)(C1)CC(C(=O)NCc1cccnc1)(C2)C3`, the solubility (kinetic) is > 46.9 µg/mL.
